Like-named read-outs stand apart in the source and are kept apart here.
What was measured:
Format in all cases: cell-based, human
NCI-H358 (K-Ras G12C) = assay: CellTiter-Glo cell viability assay, H358
Experimental: (§1) Note—The following protocol describes a procedure for monitoring cell viability of K-Ras mutant cancer cell lines in response to a compound of the invention. Other RAS isoforms may be employed, though the number of cells to be seeded will vary based on cell line used.
(§2) Test compounds (132.5 nL) were directly dispensed into the assay plates containing cells. […] On day 5, assay plates and their contents were equilibrated to room temperature for approximately 30 minutes. […] Luminescence was measured using the PerkinElmer Enspire. Data were normalized by the following: (Sample signal/Avg. DMSO)*100. The data were fit using a four-parameter logistic fit.

AsPC-1 (K-Ras G12D) [1] = assay: CellTiter-Glo cell viability assay, AsPC-1; settings: read-out: AsPC-1 Cell Viability IC50
Experimental: as §1, §2

AsPC-1 (K-Ras G12D) [2] = assay: Potency assay: pERK
Summary of the method: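 Cells plated overnight, then exposed 4 h at 37 °C to 10-point 3-fold dilutions of compound, in duplicate. pERK read by AlphaLISA SureFire Ultra p-ERK1/2 lysate assay or by In-Cell Western (pERK antibody, DRAQ5 DNA normalisation). IC50 from 4-parameter sigmoidal fit of signal vs log concentration.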

[3] = Homo sapiens, NCI-H358, 120 h, read-out: H358 Cell Viability IC50, K-Ras G12C, 5-day treatment
[4] = Homo sapiens, ASPC1, read-out: pERK EC50

## CCn1c(-c2cccnc2[C@H](C)OC)c2c3cc(ccc31)-c1cc(O)cc(c1)C[C@H](NC(=O)[C@H](C1CCCC1)N(C)C(=O)CN(C)C(=O)[C@H]1CN1)C(=O)N1CCC[C@H](N1)C(=O)OCC(C)(C)C2 [Example 95, (2R)—N-(2-(((1S)-1-cyclopentyl-2-(((6^3S,4S)-1^1-ethyl-25-hydroxy-1^2-(2-((S)-1-methoxyethyl)pyridin-3-yl)-10,10-dimethyl-5,7-dioxo-61,62,63,64,65,66-hexahydro-1^1H-8-oxa-1 (5,3)-indola-6 (1,3)-pyridazina-2 (1,3)-benzenacycloundecaphane-4-yl)amino)-2-oxoethyl) (methyl)amino)-2-oxoethyl)-N-methylaziridine-2-carboxamide]
NCI-H358 (K-Ras G12C); [3]
  IC50: < 0.01 µM
AsPC-1 (K-Ras G12D) [1]; Homo sapiens, ASPC1, 120 h
  IC50: 0.01 to 0.1 µM
AsPC-1 (K-Ras G12D) [2]; [4]
  EC50: < 5 µM

## CCn1c(-c2cccnc2[C@H](C)OC)c2c3cc(ccc31)-c1cc(O)cc(c1)C[C@H](NC(=O)[C@H](C(C)C)N(C)C(=O)[C@H](C)N(C)C(=O)[C@H]1CN1)C(=O)N1CCC[C@H](N1)C(=O)OCC(C)(C)C2 [Example 102]
NCI-H358 (K-Ras G12C); [3]
  IC50: 0.01 to 0.1 µM
AsPC-1 (K-Ras G12D) [1]; Homo sapiens, ASPC1, 120 h
  IC50: 0.1 to 1 µM
AsPC-1 (K-Ras G12D) [2]; [4]
  EC50: < 5 µM

## CCn1c(-c2cccnc2[C@H](C)OC)c2c3cc(ccc31)-c1cccc(c1)C[C@H](NC(=O)[C@H](C(C)C)N(C)C(=O)CN(C)C(=O)[C@H]1CN1)C(=O)N1CCC[C@H](N1)C(=O)OCC(C)(C)C2 [Example 107]
NCI-H358 (K-Ras G12C); [3]
  IC50: 0.1 to 1 µM
AsPC-1 (K-Ras G12D) [1]; Homo sapiens, ASPC1, 120 h
  IC50: 1 to 10 µM
AsPC-1 (K-Ras G12D) [2]; [4]
  EC50: < 5 µM

## CCn1c(-c2cccnc2[C@H](C)OC)c2c3cc(ccc31)-c1cc(O)cc(c1)C[C@H](NC(=O)[C@H](C(C)C)N(C)C(=O)CN(C)C(=O)[C@@H]1N[C@@H]1C1CC1)C(=O)N1CCC[C@H](N1)C(=O)OCC(C)(C)C2 [Example 133, (2R,3R)-3-cyclopropyl-N-(2-(((2S)-1-(((6^3S,4S)-1^1-ethyl-25-hydroxy-1^2-(2-((S)-1-methoxyethyl)pyridin-3-yl)-10,10-dimethyl-5,7-dioxo-61,62,63,64,65,66-hexahydro-1^1H-8-oxa-1 (5,3)-indola-6 (1,3)-pyridazina-2 (1,3)-benzenacycloundecaphane-4-yl)amino)-3-methyl-1-oxobutan-2-yl) (methyl)amino)-2-oxoethyl)-N-methylaziridine-2-carboxamide]
NCI-H358 (K-Ras G12C); [3]
  IC50: 0.01 to 0.1 µM
AsPC-1 (K-Ras G12D) [1]; Homo sapiens, ASPC1, 120 h
  IC50: 0.01 to 0.1 µM
AsPC-1 (K-Ras G12D) [2]; [4]
  EC50: < 5 µM

## CCn1c(-c2cccnc2[C@H](C)OC)c2c3cc(ccc31)-c1cc(O)cc(c1)C[C@H](NC(=O)[C@H](C(C)C)N(C)C(=O)CN(C)C(=O)[C@H]1N[C@@H]1C1CC1)C(=O)N1CCC[C@H](N1)C(=O)OCC(C)(C)C2 [Example 135]
NCI-H358 (K-Ras G12C); read-out: H358 Cell Viability IC50, K-Ras G12C, 5-day treatment
  IC50: 0.01 to 0.1 µM
AsPC-1 (K-Ras G12D) [1]; Homo sapiens, ASPC1, 120 h
  IC50: 0.1 to 1 µM
AsPC-1 (K-Ras G12D) [2]; read-out: pERK EC50, AsPC-1 KRAS G12D
  EC50: < 5 µM

## CCn1c(-c2cccnc2[C@H](C)OC)c2c3cc(ccc31)-c1cc(O)cc(c1)C[C@H](NC(=O)[C@H](C(C)C)N(C)C(=O)CN(C)C(=O)[C@H]1N[C@@H]1C1CC1)C(=O)N1CCC[C@H](N1)C(=O)OCC(C)(C)C2 [Example 136]
NCI-H358 (K-Ras G12C); [3]
  IC50: < 0.01 µM
AsPC-1 (K-Ras G12D) [1]; K-Ras G12D, 5-day treatment
  IC50: 0.1 to 1 µM
AsPC-1 (K-Ras G12D) [2]; [4]
  EC50: < 5 µM

## CCn1c(-c2cccnc2[C@H](C)OC)c2c3cc(ccc31)-c1cc(O)cc(c1)C[C@H](NC(=O)[C@H](C(C)C)N(C)C(=O)CN(C)C(=O)[C@@H]1CN1CCCOC)C(=O)N1CCC[C@H](N1)C(=O)OCC(C)(C)C2 (stereo partly drawn) [Example 137]
NCI-H358 (K-Ras G12C); [3]
  IC50: < 0.01 µM
AsPC-1 (K-Ras G12D) [1]; Homo sapiens, ASPC1, 120 h
  IC50: 0.1 to 1 µM
AsPC-1 (K-Ras G12D) [2]; [4]
  EC50: < 5 µM

## CCn1c(-c2cccnc2[C@H](C)OC)c2c3cc(ccc31)-c1cc(O)cc(c1)C[C@H](NC(=O)[C@H](C(C)C)N(C)C(=O)CNC(=O)[C@@H]1N[C@@H]1C1CC1)C(=O)N1CCC[C@H](N1)C(=O)OCC(C)(C)C2 [Example 141]
NCI-H358 (K-Ras G12C); [3]
  IC50: 0.1 to 1 µM
AsPC-1 (K-Ras G12D) [1]; Homo sapiens, ASPC1, 120 h
  IC50: 0.1 to 1 µM
AsPC-1 (K-Ras G12D) [2]; [4]
  EC50: < 5 µM

## CCn1c(-c2cccnc2[C@H](C)OC)c2c3cc(ccc31)-c1cc(O)cc(c1)C[C@H](NC(=O)[C@H](C(C)C)N(C)C(=O)CN(C)C(=O)[C@H]1CN1C(C)C)C(=O)N1CCC[C@H](N1)C(=O)OCC(C)(C)C2 (stereo partly drawn) [Example 142]
NCI-H358 (K-Ras G12C); [3]
  IC50: < 0.01 µM
AsPC-1 (K-Ras G12D) [1]; Homo sapiens, ASPC1, 120 h
  IC50: 0.1 to 1 µM
AsPC-1 (K-Ras G12D) [2]; [4]
  EC50: < 5 µM

## CCC(C)N(C)C(=O)c1cncc(-c2c3c4cc(ccc4n2CC)-c2cc(O)cc(c2)C[C@H](NC(=O)[C@H](C(C)C)N(C)C(=O)CN(C)C(=O)[C@H]2CN2)C(=O)N2CCC[C@H](N2)C(=O)OCC(C)(C)C3)c1 (stereo partly drawn) [Example 144]
NCI-H358 (K-Ras G12C); [3]
  IC50: 0.01 to 0.1 µM
AsPC-1 (K-Ras G12D) [1]; Homo sapiens, ASPC1, 120 h
  IC50: 0.1 to 1 µM
AsPC-1 (K-Ras G12D) [2]; [4]
  EC50: < 5 µM

## CCn1c(-c2cccnc2[C@H](C)OC)c2c3cc(ccc31)-c1cc(O)cc(c1)C[C@H](NC(=O)[C@H](C(C)C)N(C)C(=O)CN(C)C(=O)[C@@H]1CN1C(C)C)C(=O)N1CCC[C@H](N1)C(=O)OCC(C)(C)C2 (stereo partly drawn) [Example 148]
NCI-H358 (K-Ras G12C); [3]
  IC50: < 0.01 µM
AsPC-1 (K-Ras G12D) [1]; Homo sapiens, ASPC1, 120 h
  IC50: 0.1 to 1 µM
AsPC-1 (K-Ras G12D) [2]; [4]
  EC50: < 5 µM

## CCn1c(-c2cccnc2[C@H](C)OC)c2c3cc(ccc31)-c1cc(O)cc(c1)C[C@H](NC(=O)[C@H](C(C)C)N(C)C(=O)CN(C)C(=O)[C@@H]1CN1)C(=O)N1CCC[C@H](N1)C(=O)OCC(C)(C)C2 [Example 150]
NCI-H358 (K-Ras G12C); [3]
  IC50: < 0.01 µM
AsPC-1 (K-Ras G12D) [1]; Homo sapiens, ASPC1, 120 h
  IC50: 0.1 to 1 µM
AsPC-1 (K-Ras G12D) [2]; [4]
  EC50: < 5 µM

## CCn1c(-c2cccnc2[C@H](C)OC)c2c3cc(ccc31)-c1cc(O)cc(c1)C[C@H](NC(=O)[C@H](C(C)C)N(C)C(=O)CN(C)C(=O)[C@H]1CN1Cc1ccccc1F)C(=O)N1CCC[C@H](N1)C(=O)OCC(C)(C)C2 (stereo partly drawn) [Example 155]
NCI-H358 (K-Ras G12C); [3]
  IC50: < 0.01 µM
AsPC-1 (K-Ras G12D) [1]; Homo sapiens, ASPC1, 120 h
  IC50: 0.1 to 1 µM
AsPC-1 (K-Ras G12D) [2]; [4]
  EC50: < 5 µM

## CCn1c(-c2cccnc2[C@H](C)OC)c2c3cc(ccc31)-c1cc(O)cc(c1)C[C@H](NC(=O)[C@H](C(C)C)N(C)C(=O)CN(C)C(=O)[C@H]1CN1Cc1ccccc1CO)C(=O)N1CCC[C@H](N1)C(=O)OCC(C)(C)C2 (stereo partly drawn) [Example 156]
NCI-H358 (K-Ras G12C); [3]
  IC50: < 0.01 µM
AsPC-1 (K-Ras G12D) [1]; Homo sapiens, ASPC1, 120 h
  IC50: 0.1 to 1 µM
AsPC-1 (K-Ras G12D) [2]; [4]
  EC50: < 5 µM

## CCn1c(-c2cccnc2[C@H](C)OC)c2c3cc(ccc31)-c1cc(O)cc(c1)C[C@H](NC(=O)[C@H](C(C)C)N(C)C(=O)CN(C)C(=O)[C@H]1CN1CCOC)C(=O)N1CCC[C@H](N1)C(=O)OCC(C)(C)C2 (stereo partly drawn) [Example 159]
NCI-H358 (K-Ras G12C); [3]
  IC50: < 0.01 µM
AsPC-1 (K-Ras G12D) [1]; Homo sapiens, ASPC1, 120 h
  IC50: 0.1 to 1 µM
AsPC-1 (K-Ras G12D) [2]; [4]
  EC50: < 5 µM

## CCn1c(-c2cccnc2[C@H](C)OC)c2c3cc(ccc31)-c1cc(O)cc(c1)C[C@H](NC(=O)[C@H](C(C)C)N(C)C(=O)CN(C)C(=O)[C@@H]1CN1CCOC)C(=O)N1CCC[C@H](N1)C(=O)OCC(C)(C)C2 (stereo partly drawn) [Example 160]
NCI-H358 (K-Ras G12C); [3]
  IC50: < 0.01 µM
AsPC-1 (K-Ras G12D) [1]; Homo sapiens, ASPC1, 120 h
  IC50: 0.1 to 1 µM
AsPC-1 (K-Ras G12D) [2]; [4]
  EC50: < 5 µM

## CCn1c(-c2cccnc2[C@H](C)OC)c2c3cc(ccc31)-c1cc(O)cc(c1)C[C@H](NC(=O)[C@H](C(C)C)N(C)C(=O)CN(C)C(=O)[C@H]1CN1CCCOC)C(=O)N1CCC[C@H](N1)C(=O)OCC(C)(C)C2 (stereo partly drawn) [Example 201]
NCI-H358 (K-Ras G12C); [3]
  IC50: < 0.01 µM
AsPC-1 (K-Ras G12D) [1]; Homo sapiens, ASPC1, 120 h
  IC50: 0.1 to 1 µM
AsPC-1 (K-Ras G12D) [2]; [4]
  EC50: < 5 µM

## CCn1c(-c2cc(N3CCN(C)CC3)cnc2[C@H](C)OC)c2c3cc(ccc31)-c1cc(O)cc(c1)C[C@H](NC(=O)[C@H](C1CCCC1)N(C)C(=O)CN(C)C(=O)[C@H]1CN1)C(=O)N1CCC[C@H](N1)C(=O)OCC(C)(C)C2 [Example 209, (2R)—N-(2-(((1S)-1-cyclopentyl-2-(((6^3S,4S)-1^1-ethyl-25-hydroxy-12-(2-((S)-1-methoxyethyl)-5-(4-methylpiperazin-1-yl)pyridin-3-yl)-10,10-dimethyl-5,7-dioxo-6^1,6^2,6^3,6^4,6^5,6^6-hexahydro-1^1H-8-oxa-1 (5,3)-indola-6 (1,3)-pyridazina-2 (1,3)-benzenacycloundecaphane-4-yl)amino)-2-oxoethyl) (methyl)amino)-2-oxoethyl)-N-methylaziridine-2-carboxamide]
NCI-H358 (K-Ras G12C); [3]
  IC50: < 0.01 µM
AsPC-1 (K-Ras G12D) [1]; Homo sapiens, ASPC1, 120 h
  IC50: < 0.01 µM
AsPC-1 (K-Ras G12D) [2]; [4]
  EC50: < 5 µM
